Assays:
Format in all cases: in vivo, Balb/c mice
[1] = test system: LPS-induced ALI/ARDS model mice; assay: Cell count of alveolar lavage fluid in LPS-induced ALI/ARDS mice; details: 24 hours after LPS, oral dosing 0.5 h before and 6 hours after LPS
Procedure: (§1) LPS induced model was given again after 6 hours, and the dose was the same as that of the first administration. After 24 hours from LPS induced model, all mice were weighed, the animals used were anesthetized and the alveolar lavage fluid was collected, the lower cell pellets were collected after centrifugation, and the cells were resuspended, fixed with methanol and stained with Wright-Giemsa, and the eosinophils, neutrophils, macrophages and lymphocytes were counted by an optical microscope. The mice were euthanized with excess carbon dioxide. After the maximum blood volume was collected from the heart, the left lung was fixed with neutral formaldehyde and embedded in paraffin, sliced and HE staining, photographed to observe the lung injury and score.

TNF-α = TNF-α in alveolar lavage fluid of LPS-induced ALI/ARDS mice (Elisa); details: for Inhibition of TNF-α (%): oral single dose 0.5 h before LPS (146 150 mg/kg, 41 75 mg/kg, 450 100 mg/kg, dexamethasone 10 mg/kg), alveolar lavage fluid supernatant 4 hours after LPS
Procedure: (§2) After LPS induced model for 4 hours, all mice were anesthetized and alveolar lavage fluid was collected, and the supernatant was collected by centrifuging alveolar lavage fluid. The levels of TNF-α, IL-6 and IL-1β in the supernatant were detected by enzyme-linked immunosorbent assay (Elisa).

IL-6 = IL-6 in alveolar lavage fluid of LPS-induced ALI/ARDS mice (Elisa); details: for Inhibition of IL-6 (%): oral single dose 0.5 h before LPS (146 150 mg/kg, 41 75 mg/kg, 450 100 mg/kg, dexamethasone 10 mg/kg), alveolar lavage fluid supernatant 4 hours after LPS
Procedure: as §2

[2] = Body weight of LPS-induced ALI/ARDS mice; details: oral dosing 0.5 h before and 6 hours after LPS (146 150 mg/kg, 41 75 mg/kg, 450 100 mg/kg, dexamethasone 10 mg/kg); 24 hours after LPS; Mean±SEM
Procedure: as §1

IL-1β = IL-1β in alveolar lavage fluid of LPS-induced ALI/ARDS mice (Elisa); details: for Inhibition of IL-1β (%): oral single dose 0.5 h before LPS (146 150 mg/kg, 41 75 mg/kg, 450 100 mg/kg, dexamethasone 10 mg/kg), alveolar lavage fluid supernatant 4 hours after LPS
Procedure: as §2

[3] = test system: LPS-induced ALI/ARDS model mice; assay: Lung pathology score (HE staining) in LPS-induced ALI/ARDS mice; details: left lung HE staining, 24 hours after LPS; four categories each scored 0 to 4
Procedure: LPS induced model was given again after 6 hours, and the dose was the same as that of the first administration. […] The mice were euthanized with excess carbon dioxide. After the maximum blood volume was collected from the heart, the left lung was fixed with neutral formaldehyde and embedded in paraffin, sliced and HE staining, photographed to observe the lung injury and score.
Lung pathology scoring criteria: (1) alveolar congestion; (2) hemorrhage; (3) neutrophil infiltration into airspace or vascular wall; (4) alveolar wall/thickness formed by hyaline membrane.

[4] = after acting for 4 hours, comparison between compounds 146, 450, 41 and model group

Structure (SMILES)	Eosinophils (*10^4) [1]	Lymphocytes (*10^4) [1]	Macrophages (*10^4) [1]	Neutrophils (*10^4) [1]	Total cell count (*10^4) [1]	Inhibition of TNF-α (%) (TNF-α)	Inhibition of IL-6 (%) (IL-6)	Weight [2] [g]	Inhibition of IL-1β (%) (IL-1β)	Pulmonary pathology score [3]	TNF-α inhibitory effect (in words) (TNF-α; [4])	IL-6 inhibitory effect (in words) (IL-6; [4])	IL-1β inhibitory effect (in words) (IL-1β; [4])
C[C@@H]1C[C@H]2[C@@H]3CCC4=CC(=O)C=C[C@]4(C)[C@@]3(F)[C@@H](O)C[C@]2(C)[C@@]1(O)C(=O)CO [Dexamethasone, dexamethasone]	3.17 *10^4	3.25 *10^4	108.20 *10^4	361.63 *10^4	476.25 *10^4	128.70	0.00	18.91 ± 0.74	0.00	3.50			
Cc1cc(-c2nc(C(=O)Nc3cc4oc(N5CCOCC5)nc4nc3N3CC[C@@H](O)C3)co2)ccn1 [Compound 41, (R)-N-(5-(3-hydroxypyrrolidine-1-yl)-2-morpholinoxazo [4,5-b]pyridine-6-yl)-2-(2-methylpyridine-4-yl) oxazole-4-formamide]	2.81 *10^4	3.71 *10^4	89.06 *10^4	466.17 *10^4	561.75 *10^4	12.90	21.40	19.45 ± 0.71	52.00	4.17			
CC[C@@H]1[C@H](F)C(=O)N[C@@H]1COc1nccc2cc(C(N)=O)c(OC)cc12 [Compound 450]	3.11 *10^4	2.74 *10^4	74.91 *10^4	386.74 *10^4	467.50 *10^4	28.70	36.40	18.68 ± 0.4	43.90	4.83	significantly lower than that of compound 146	significantly lower than that of compound 146	significantly lower than that of compound 146
